# Laboratory results taken from US7332518B2, “Carboxamides as fungicides in agriculture” (Syngenta Crop Protection, Inc., priority 2001, dated 2008).
row,SMILES,melting point
1,"Cn1cc(C(=O)NCC#Cc2ccccc2-c2ccc(Br)cc2)c(C(F)(F)F)n1 [Compound 2.010, 1-Methyl-3-trifluoromethyl-1H-pyrazole-4-carboxylic acid (4′-bromobiphenyl-2-yl)prop-2-ynyl-amide]",171 to 172 °C
2,"Cn1cc(C(=O)NC=C=Cc2ccccc2-c2ccc(Br)cc2)c(C(F)(F)F)n1 [Compound 2.123, 1-Methyl-3-trifluoromethyl-1H-pyrazole-4-carboxylic acid (4′-bromobiphenyl-2-yl)propa-1,2-dienyl-amide]",146 to 149 °C
3,"C#CCN(C(=O)c1cn(C)cc1C(F)(F)F)c1cccc2c1C(C)CC2(C)C (stereo not drawn) [Compound 10.3, 1-methyl-4-trifluoromethyl-1H-pyrrole-3-carboxylic acid prop-2-ynyl-(1,1,3-trimethylindan-4-yl)amide]",142 to 144 °C
